Reference: patent publication US20240148822A1, “ASSOCIATIONS OF FOSFOMYCIN AND COLISTIN FOR USE AGAINST BIOFILM-ASSOCIATED BACTERIAL INFECTIONS” (priority 2021, published 2024)
Converted amounts (≈) assume the structure as drawn.

Key:
Format in all cases: cell-based
A. baumannii [1] = test: Colistin MIC, broth microdilution method (CLSI)
Description: (§1) Antimicrobial susceptibility testing was performed according to Clinical and Laboratory Standard Institute guidelines [CLSI_M07 2018, CLSI_M100 2020]. In particular, colistin MICs were determined by the broth microdilution method, and fosfomycin MICs by the agar dilution method (with the addition of 25 μg/ml of glucose-6-phosphate, as recommended). […] and P. aeruginosa ATCC 27853 were used for quality control purposes.

K. pneumoniae [2] = test: Colistin MIC, broth microdilution method (CLSI)
Description: as §1

P. aeruginosa [3] = test: Colistin MIC, broth microdilution method (CLSI)
Description: as §1

S. maltophilia [4] = test: Colistin MIC, broth microdilution method (CLSI)
Description: as §1

[5] = tested on: A. baumannii preformed biofilms; test: Biofilm susceptibility testing (Nunc-TSP lid system), MBEC; conditions: 24 h exposure
Description: (§2) Fosfomycin and colistin Minimum Biofilm Eradication Concentrations (MBECs) were determined as previously described (Macia et al, mentioned above), with MBEC being defined as the lowest concentration of antibiotic that prevented visible bacterial growth in the recovery medium.

[6] = tested on: K. pneumoniae preformed biofilms; test: as above; conditions: 24 h exposure
Description: as §2

[7] = tested on: P. aeruginosa preformed biofilms; test: as above; conditions: 24 h exposure
Description: as §2

[8] = tested on: S. maltophilia preformed biofilms; test: as above; conditions: 24 h exposure
Description: as §2

[9] = tested on: all tested strains (Gram-negative clinical isolates); test: Colistin MIC, broth microdilution, summary over all tested strains
Description: as §1

[10] = tested on: all tested strains (preformed biofilms); test: MBEC, summary over all tested strains; conditions: colistin
Description: as §2

A. baumannii [11] = test: Fosfomycin MIC, agar dilution method (CLSI); conditions: Acinetobacter baumannii
Description: as §1

K. pneumoniae [12] = test: Fosfomycin MIC, agar dilution method (CLSI); conditions: Klebsiella pneumoniae
Description: as §1

P. aeruginosa [13] = test: Fosfomycin MIC, agar dilution method (CLSI); conditions: Pseudomonas aeruginosa
Description: as §1

S. maltophilia [14] = test: Fosfomycin MIC, agar dilution method (CLSI); conditions: Stenotrophomonas maltophilia
Description: as §1

[15] = tested on: all tested strains (Gram-negative clinical isolates); test: Fosfomycin MIC, agar dilution, summary over all tested strains
Description: as §1

[16] = strain FZ103, preformed biofilm
[17] = strain FZ105, preformed biofilm
[18] = strain FZ106, preformed biofilm
[19] = strain FZ108, preformed biofilm
[20] = strain FZ141, preformed biofilm
[21] = strain FZ139, preformed biofilm

With colistin the “Colistin MIC” value (A. baumannii [1]; strain FZ1) was 0.5 µg/mL, the “Colistin MIC” value (A. baumannii [1]; strain FZ2) was 1 µg/mL and the “Colistin MIC” value (A. baumannii [1]; strain FZ83) was 8 µg/mL. For the same molecule, the “Colistin MIC” value (K. pneumoniae [2]; strain FZ80) was 0.5 µg/mL, the “Colistin MIC” value (K. pneumoniae [2]; strain FZ103) was 8 µg/mL and the “Colistin MIC” value (K. pneumoniae [2]; strain FZ105) was 128 µg/mL. The “Colistin MIC” value (K. pneumoniae [2]; strain FZ106) was 32 µg/mL, the “Colistin MIC” value (K. pneumoniae [2]; strain FZ108) was 32 µg/mL and the “Colistin MIC” value (K. pneumoniae [2]; strain FZ141) was 2 µg/mL. For the same molecule, the “Colistin MIC” value (P. aeruginosa [3]; strain FZ18) was 4 µg/mL, the “Colistin MIC” value (P. aeruginosa [3]; strain FZ34) was 4 µg/mL and the “Colistin MIC” value (P. aeruginosa [3]; strain FZ45) was 4 µg/mL. The “Colistin MIC” value (P. aeruginosa [3]; strain FZ98) was 512 µg/mL, the “Colistin MIC” value (P. aeruginosa [3]; strain FZ139) was 4 µg/mL and the “Colistin MIC” value (S. maltophilia [4]; strain FZ6) was 4 µg/mL. The “Colistin MIC” value (S. maltophilia [4]; strain FZ8) was 4 µg/mL, the “Colistin MIC” value (S. maltophilia [4]; strain FZ85) was 16 µg/mL and the “Colistin MBEC” value ([5]; strain FZ1, preformed biofilm) was 64 µg/mL. The “Colistin MBEC” value ([5]; strain FZ2, preformed biofilm) was >1024 µg/mL, the “Colistin MBEC” value ([5]; strain FZ83, preformed biofilm) was 128 µg/mL and the “Colistin MBEC” value ([6]; strain FZ80, preformed biofilm) was 64 µg/mL. The “Colistin MBEC” value [6, 16] was 64 µg/mL, the “Colistin MBEC” value [6, 17] was 256 µg/mL and the “Colistin MBEC” value [6, 18] was 256 µg/mL. For the same molecule, the “Colistin MBEC” value [6, 19] was >1024 µg/mL, the “Colistin MBEC” value [6, 20] was 8 µg/mL and the “Colistin MBEC” value ([7]; strain FZ18, preformed biofilm) was >1024 µg/mL. For the same molecule, the “Colistin MBEC” value ([7]; strain FZ34, preformed biofilm) was >1024 µg/mL, the “Colistin MBEC” value ([7]; strain FZ45, preformed biofilm) was >1024 µg/mL and the “Colistin MBEC” value ([7]; strain FZ98, preformed biofilm) was >1024 µg/mL. For the same molecule, the “Colistin MBEC” value [7, 21] was >1024 µg/mL, the “Colistin MBEC” value ([8]; strain FZ6, preformed biofilm) was >1024 µg/mL and the “Colistin MBEC” value ([8]; strain FZ8, preformed biofilm) was >1024 µg/mL. The “Colistin MBEC” value ([8]; strain FZ85, preformed biofilm) was >1024 µg/mL, the MIC50 [9] was 4 μs/ml and the MIC90 [9] was 32 μs/ml. It also gave an MBEC50 [10] of 512 µg/mL.

With `C[C@@H]1O[C@@H]1P(=O)(O)O` [Fosfomycin, fosfomycin] the MIC (A. baumannii [11]; strain FZ1) was 512 µg/mL (≈ 3710 µM), the MIC (A. baumannii [11]; strain FZ2) was > 1020 µg/mL and the MIC (A. baumannii [11]; strain FZ83) was 64 µg/mL (≈ 464 µM). It also gave an MIC (K. pneumoniae [12]; strain FZ80) of 128 µg/mL (≈ 927 µM), an MIC (K. pneumoniae [12]; strain FZ103) of 32 µg/mL (≈ 232 µM) and an MIC (K. pneumoniae [12]; strain FZ105) of 16 µg/mL (≈ 116 µM). For the same molecule, the MIC (K. pneumoniae [12]; strain FZ106) was 64 µg/mL (≈ 464 µM), the MIC (K. pneumoniae [12]; strain FZ108) was 128 µg/mL (≈ 927 µM) and the MIC (K. pneumoniae [12]; strain FZ141) was ≤ 0.25 µg/mL. For the same molecule, the MIC (P. aeruginosa [13]; strain FZ18) was 64 µg/mL (≈ 464 µM), the MIC (P. aeruginosa [13]; strain FZ34) was > 1020 µg/mL and the MIC (P. aeruginosa [13]; strain FZ45) was > 1020 µg/mL. It also gave an MIC (P. aeruginosa [13]; strain FZ98) of 64 µg/mL (≈ 464 µM), an MIC (P. aeruginosa [13]; strain FZ139) of 8 µg/mL (≈ 57.9 µM) and an MIC (S. maltophilia [14]; strain FZ6) of 64 µg/mL (≈ 464 µM). The MIC (S. maltophilia [14]; strain FZ8) was 128 µg/mL (≈ 927 µM), the MIC (S. maltophilia [14]; strain FZ85) was 32 µg/mL (≈ 232 µM) and the “Fosfomycin MBEC” value ([5]; strain FZ1, preformed biofilm) was >1024 µg/mL. For the same molecule, the “Fosfomycin MBEC” value ([5]; strain FZ2, preformed biofilm) was >1024 µg/mL, the “Fosfomycin MBEC” value ([5]; strain FZ83, preformed biofilm) was >1024 µg/mL and the “Fosfomycin MBEC” value ([6]; strain FZ80, preformed biofilm) was >1024 µg/mL. The “Fosfomycin MBEC” value [6, 16] was >1024 µg/mL, the “Fosfomycin MBEC” value [6, 17] was >1024 µg/mL and the “Fosfomycin MBEC” value [6, 18] was >1024 µg/mL. The “Fosfomycin MBEC” value [6, 19] was >1024 µg/mL, the “Fosfomycin MBEC” value [6, 20] was 4 µg/mL and the “Fosfomycin MBEC” value ([7]; strain FZ18, preformed biofilm) was >1024 µg/mL. For the same molecule, the “Fosfomycin MBEC” value ([7]; strain FZ34, preformed biofilm) was >1024 µg/mL, the “Fosfomycin MBEC” value ([7]; strain FZ45, preformed biofilm) was >1024 µg/mL and the “Fosfomycin MBEC” value ([7]; strain FZ98, preformed biofilm) was >1024 µg/mL. For the same molecule, the “Fosfomycin MBEC” value [7, 21] was >1024 µg/mL, the “Fosfomycin MBEC” value ([8]; strain FZ6, preformed biofilm) was >1024 µg/mL and the “Fosfomycin MBEC” value ([8]; strain FZ8, preformed biofilm) was >1024 µg/mL. For the same molecule, the “Fosfomycin MBEC” value ([8]; strain FZ85, preformed biofilm) was >1024 µg/mL, the MIC50 [15] was 64 μs/m1 and the MIC90 [15] was > 1024 μs/ml.
